These results are taken from ChEMBL document CHEMBL1140762, “Acridones circumvent P-glycoprotein-associated multidrug resistance (MDR) in cancer cells” (Bioorg Med Chem, 2008).

Data set [1] is described as follows: Dissociation constant, pKa of the compound. Type of data set: physicochemical.
Data set [2] can be described thus: Lipophilicity, log P of the compound. The class given is physicochemical. As to conditions: octanol/water.
The target of data set [3] is T1, ATP-dependent translocase ABCB1 (Homo sapiens, UniProt P08183). Briefly: Inhibition of P-glycoprotein in MDR human KBChR-8-5 cells assessed as uptake of vinblastin relative to control. Type of data set: cell-based. The arrangement: concentration or dose not given beside the values.
T1 sequence (P08183 whole entry): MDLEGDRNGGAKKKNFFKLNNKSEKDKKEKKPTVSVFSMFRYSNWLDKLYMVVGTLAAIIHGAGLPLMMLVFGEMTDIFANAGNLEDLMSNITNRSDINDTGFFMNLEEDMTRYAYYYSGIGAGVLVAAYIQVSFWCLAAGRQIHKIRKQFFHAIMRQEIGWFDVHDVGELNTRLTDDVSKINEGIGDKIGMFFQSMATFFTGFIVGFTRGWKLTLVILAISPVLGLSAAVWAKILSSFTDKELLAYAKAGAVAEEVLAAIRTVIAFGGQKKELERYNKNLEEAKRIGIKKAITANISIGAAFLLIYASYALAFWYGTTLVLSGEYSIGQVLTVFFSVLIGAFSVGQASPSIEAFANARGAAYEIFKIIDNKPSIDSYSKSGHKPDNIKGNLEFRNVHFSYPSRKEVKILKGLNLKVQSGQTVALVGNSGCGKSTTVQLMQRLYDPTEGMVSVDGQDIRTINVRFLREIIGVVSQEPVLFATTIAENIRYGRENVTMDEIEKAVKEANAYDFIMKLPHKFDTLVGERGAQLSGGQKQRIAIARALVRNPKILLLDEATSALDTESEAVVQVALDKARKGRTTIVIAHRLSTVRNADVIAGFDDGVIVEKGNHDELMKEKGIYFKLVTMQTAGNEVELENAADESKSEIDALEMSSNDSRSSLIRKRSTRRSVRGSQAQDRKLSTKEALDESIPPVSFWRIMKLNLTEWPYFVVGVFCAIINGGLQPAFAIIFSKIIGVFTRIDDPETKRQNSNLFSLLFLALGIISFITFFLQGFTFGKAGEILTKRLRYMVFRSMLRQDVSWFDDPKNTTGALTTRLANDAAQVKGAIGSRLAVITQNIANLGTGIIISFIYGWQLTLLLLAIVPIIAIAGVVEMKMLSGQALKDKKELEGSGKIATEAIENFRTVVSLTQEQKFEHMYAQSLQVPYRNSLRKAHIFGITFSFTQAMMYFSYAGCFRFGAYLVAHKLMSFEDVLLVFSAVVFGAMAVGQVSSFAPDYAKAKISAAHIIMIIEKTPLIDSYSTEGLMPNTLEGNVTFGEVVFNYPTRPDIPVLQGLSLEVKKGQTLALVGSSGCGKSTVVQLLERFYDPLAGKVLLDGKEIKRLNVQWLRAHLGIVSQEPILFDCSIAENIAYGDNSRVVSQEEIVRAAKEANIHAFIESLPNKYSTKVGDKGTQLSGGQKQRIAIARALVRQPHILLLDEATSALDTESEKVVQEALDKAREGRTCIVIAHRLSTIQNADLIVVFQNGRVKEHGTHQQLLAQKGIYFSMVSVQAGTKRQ
The target of data set [4] is T1, ATP-dependent translocase ABCB1. Description: Inhibition of P-glycoprotein in MDR human KBChR-8-5 cells assessed as retention of [3H]VLB after 2 hrs. The class given is cell-based. The arrangement: concentration or dose not given beside the values.
For the next data set, the system named is KB-Vi. Briefly: Displacement of [3H]azidopine from human P-glycoprotein in KB-Vi cells. The arrangement: concentration or dose not given beside the values. The class given is cell-based.
A further data set deals with MDR. Description: Cytotoxicity against MDR human KBChR cells. Type of data set: functional, cell-based.

In data set [1], `O=c1c2ccccc2[nH]c2ccc(Cl)cc12` returned a pKa of 8.29. This molecule also came in with a logP in data set [2] of 2.06. The Activity in data set [3] is 715%; in data set [4], 49%; in the data set on KB-Vi it was 85%. Also, the IC10 with MDR came to 1.41 µM. The molecule also came in with an IC50 in the data set with MDR of 18 µM.

In turn, `O=c1c2ccccc2n(CCCCCl)c2ccc(Cl)cc12` yielded a pKa in data set [1] of 8.85. Moreover, the logP in data set [2] was determined as 1.68. Also, the values for the Activity (in data set [3]; in data set [4]; in the data set on KB-Vi) were 982%, 60.5% and 70%, respectively. In addition, it took 1.25 µM to reach the 10% level with MDR (IC10). Besides, in the data set with MDR, the IC50 came to 10.8 µM.

Molecule `CN1CCN(CCCn2c3ccccc3c(=O)c3cc(Cl)ccc32)CC1` returned a pKa in data set [1] of 5.28. This molecule also returned a logP in data set [2] of 1.48. The results for the Activity (in data set [3]; in data set [4]; in the data set with KB-Vi) were 1010%, 51% and 45%, respectively. Also, the IC10 with MDR amounted to 0.8 µM. Moreover, the IC50 in the data set with MDR worked out at 9 µM.

In data set [1], `O=c1c2ccccc2n(CCCCN2CCOCC2)c2ccc(Cl)cc12` came in with a pKa of 4.91. Further, the logP in data set [2] worked out at 1.89. Moreover, the Activity in data set [3] came to 1690%; in data set [4], 76%; with KB-Vi, 15%. Besides, in the data set with MDR, the IC10 amounted to 0.72 µM. Further, half-maximal inhibition in the data set with MDR (IC50) required 6 µM.

Molecule `O=c1c2ccccc2n(CCCCl)c2ccc(Cl)cc12` had a pKa in data set [1] of 8.65. The logP in data set [2] came out at 1.38. The Activity in data set [3] was found to be 880%; in data set [4], 40%; with KB-Vi it was 83%. In the data set with MDR, this molecule gave an IC10 of 1.35 µM. In the data set with MDR, this molecule yielded an IC50 of 15 µM.

Consider `CCN(CC)CCCCn1c2ccccc2c(=O)c2cc(Cl)ccc21`, for which, in data set [1], the pKa is 5.45. Besides, the logP in data set [2] is 1.9. Also, the Activity amounted to 1356% in data set [3], 77.2% in data set [4] and 20% with KB-Vi. In the data set on MDR, this molecule came in with an IC10 of 0.62 µM. This molecule yielded an IC50 with MDR of 9.1 µM.

As to `O=c1c2ccccc2n(CCCCN2CCN(CCO)CC2)c2ccc(Cl)cc12`, the pKa in data set [1] stood at 5.26. For the same molecule, the logP in data set [2] is 2.25. Further, the Activity was found to be 2010% in data set [3], 80.5% in data set [4] and 10% in the data set on KB-Vi. It took 0.46 µM to reach the 10% level in the data set with MDR (IC10). The IC50 in the data set on MDR was 4.5 µM.

Take `O=c1c2ccccc2n(CCCCN(CCO)CCO)c2ccc(Cl)cc12`: the pKa in data set [1] came out at 4.8. In data set [2], this molecule registered a logP of 1.67. In addition, the Activity in data set [3] stood at 1219%; in data set [4] it was 74%; with KB-Vi, 20%. The molecule further returned an IC10 in the data set with MDR of 0.6 µM. The molecule further registered an IC50 with MDR of 5 µM.

`O=c1c2ccccc2n(CCCN(CCO)CCO)c2ccc(Cl)cc12` gave a pKa in data set [1] of 4.8. In data set [2], the logP worked out at 1.47. The Activity stood at 1017% in data set [3], 66% in data set [4] and 40% in the data set on KB-Vi. This molecule had an IC10 in the data set with MDR of 1.2 µM. Further, in the data set on MDR, the IC50 worked out at 8.7 µM.

Molecule `O=c1c2ccccc2n(CCCN2CCCCC2)c2ccc(Cl)cc12` registered a pKa in data set [1] of 5.39. Moreover, the logP in data set [2] was 1.52. The Activity was 927% in data set [3], 54.5% in data set [4] and 50% in the data set with KB-Vi. In addition, the 10% effect level with MDR (IC10) was put at 1.25 µM. Moreover, the IC50 in the data set on MDR came to 15.5 µM.

In turn, `O=c1c2ccccc2n(CCCN2CCN(CCO)CC2)c2ccc(Cl)cc12` gave a pKa in data set [1] of 5.26. In data set [2], the logP came to 1.76. Also, the Activity in data set [3] is 1252%; in data set [4] it was 56.5%; in the data set with KB-Vi, 35%. Also, the IC10 in the data set on MDR was found to be 0.74 µM. The IC50 in the data set on MDR is 7.5 µM.

`O=c1c2ccccc2n(CCCCN2CCCC2)c2ccc(Cl)cc12` gave a pKa in data set [1] of 5.28. Also, the logP in data set [2] came to 1.74. In addition, the Activity in data set [3] worked out at 1010%; in data set [4], 79%; in the data set on KB-Vi, 30%. In the data set with MDR, this molecule returned a concentration for an effect of 10% (IC10) of 1.85 µM. Besides, it took 12.5 µM to reach half-maximal inhibition with MDR (IC50).

Consider `O=c1c2ccccc2n(CCCCN2CCCCC2)c2ccc(Cl)cc12`, for which the pKa in data set [1] is 5.36. This molecule also displayed a logP in data set [2] of 2.01. Further, the Activity came out at 1855% in data set [3], 77% in data set [4] and 15% with KB-Vi. This molecule displayed an IC10 in the data set on MDR of 0.6 µM. The same molecule had an IC50 with MDR of 5.2 µM.

Regarding `CCN(CC)CCCn1c2ccccc2c(=O)c2cc(Cl)ccc21`, the pKa in data set [1] amounted to 5.37. This molecule displayed a logP in data set [2] of 1.54. Also, the results for the Activity (in data set [3]; in data set [4]; in the data set with KB-Vi) were 948%, 47% and 80%, respectively. Further, the IC10 in the data set on MDR worked out at 1 µM. For the same molecule, in the data set on MDR, half-maximal inhibition (IC50) was put at 12.5 µM.

Regarding `O=c1c2ccccc2n(CCCN2CCOCC2)c2ccc(Cl)cc12`, the pKa in data set [1] was 4.87. For the same molecule, the logP in data set [2] was found to be 1.64. Moreover, the Activity in data set [3] is 1372%; in data set [4], 62%; in the data set with KB-Vi it was 30%. The molecule further yielded an IC10 in the data set with MDR of 1.15 µM. Moreover, it took 10.5 µM to reach half-maximal inhibition with MDR (IC50).

Turning to `O=c1c2ccccc2n(CCCN2CCCC2)c2ccc(Cl)cc12`, the pKa in data set [1] was found to be 5.21. The logP in data set [2] came out at 1.55. Besides, the figures for the Activity (in data set [3]; in data set [4]; with KB-Vi) were 988%, 56% and 50%, respectively. In the data set with MDR, this molecule displayed an IC10 of 0.9 µM. Inhibition in the data set with MDR was half-maximal at 14 µM (IC50).

In data set [1], `CN1CCN(CCCCn2c3ccccc3c(=O)c3cc(Cl)ccc32)CC1` came in with a pKa of 5.61. The molecule further showed a logP in data set [2] of 1.95. For the same molecule, the values for the Activity (in data set [3]; in data set [4]; in the data set with KB-Vi) were 1420%, 75% and 20%, respectively. Further, the IC10 in the data set on MDR amounted to 0.8 µM. In the data set with MDR, this molecule yielded an IC50 of 8 µM.
